“Also recorded” adds a separate entry of the source.
What was measured:
Trpm7 promoter [1] = assay: Trpm7 promoter luciferase reporter in PC12^LEPRb cells; format: cell-based; conditions: leptin 1 ng/ml, 48 hr
Experimental: (§1) FIG. 8A-8C illustrates exposure of leptin to Leprb-expressing PC12^LEPRb cells increased Trpm7 promoter activity and gene transcription. (A) PC12^LEPRb cells transfected with either pEZX-Luc-vector (empty, no insert) or pEZX-Luc-Trpm7 (promoter insert) were exposed to 1 ng/ml leptin for 48 hr prior to measurement of luciferase activity. B and C) Gene expression and promoter methylation of Trpm7 in cells exposed to leptin or 5-aza-dC for 48 hr. Trpm7 mRNA level was quantitated by qPCR. Methylation status of CpG sites in Trpm7 promoter were determined by bisulfite sequencing. A total of 40 CpG sites per clone and 6 individual clones for each treatment group were sequenced. Each row of circles represented an individual clone. Putative TF binding sites such as STAT3 and NFkB were shown in scale in Trpm7 promoter. TSS: transcription start site. Boxed regions highlight the CpG sites showing differential methylation in cells exposed to leptin or 5-aza-dC. (p<0.05). Values were mean±SD.
(§2) Leptin can regulate gene transcription by binding to ObRb to activate Janus kinase 2/signal transducers and activator of transcription 3 (JAK2/STAT3) as well as ERK1/2 and PI3K pathways (FIG. 7), which are known to regulate a wide variety of genes. To examine the possible regulation of Trpm7 transcription by leptin, we searched the Trpm7 promoter sequence for potential binding sites for transcription factors (TFs). […]

Trpm7 promoter [2] = assay: Trpm7 promoter methylation by bisulfite sequencing in PC12^LEPRb cells; format: cell-based; conditions: leptin exposure
Experimental: as §1, §2

TRPM7 = assay: Trpm7 mRNA level by qPCR in PC12^LEPRb cells; format: cell-based; conditions: 48 hr exposure
Experimental: as §1, §2

C57BL/6J mice = assay: telemetric blood pressure in mice, leptin-induced hypertension; format: in vivo, mouse
Experimental: Leptin signals in the CB to increase blood pressure. Male C57BL/6J mice, n=6 housed in a 12 hr light/dark cycle underwent telemetry implantation (Data Sciences) in the left femoral artery as we have described. […] After 4 day recovery mice were treated with vehicle (saline) regaining weight. On Day 17th of the protocol, carotid sinus nerve dissection (CSND, CB denervation) was performed bilaterally. After 1 week recovery, leptin and vehicle infusions were repeated. […] In contrast, CB denervation greatly modified cardiovascular effects of leptin. Indeed, in mice with intact carotid bodies leptin increased mean arterial pressure by 13 mm Hg during the day and by 16 mm Hg at night (FIG. 16A). […] Thus, leptin increases blood pressure acting in the CB.
FTY720 abolishes leptin-induced hypertension. There are multiple TRPM7 inhibitors available. We used a potent TRPM7 inhibitor FTY720 for several reasons. FTY720 is a novel immunomodulator and a structural homolog of shingosine-1-phosphate (S1P) blocking S1P effects in many diseases, including atherosclerosis, cancer, asthma, autoimmune diseases and acute lung injury. First, FTY270 has already been approved by FDA for multiple sclerosis (fingolimod). […] The experiment was performed in lean (24-26 g) C57BL/6J mice (n=5). Telemetry for continuous blood pressure recording was inserted. After 5 day recovery, mice were treated with leptin for 3 days as above. The pump was removed. After 7 day recovery, leptin was reinfused as above, but FTY720 was infused SC simultaneously at 0.1 mg/day (approximately 3 mg/kg/day).
Obesity leads to cardiovascular morbidity and mortality acting via multiple mechanisms including hypertension and obstructive sleep apnea. High levels of leptin have been associated with both conditions. The carotid bodies (CB) express leptin receptor (LepR), but the mechanism of leptin in CB is unknown. […] (CSND). In mice with intact CB, leptin increased mean arterial pressure by 13 mm Hg during the day and by 16 mm Hg at night (p=0.003 for the effect of leptin). […] Leptin receptor expression in carotid bodies of leptin receptor deficient db/db mice led to the same effect (n=6, p<0.05). […] Finally, the inventors tested the effect of a Trpm7 inhibitor on leptin-induced hypertension. The inventors performed blood pressure monitoring in male C57BL/6J mice (n=5˜9) at baseline, during leptin infusion with or without Trpm7 inhibitor, FTY720 (3 mg/kg/day, sc, n=5) for 24 hrs. […] The inventors conclude that leptin increases blood pressure acting in the CB via the Trpm7 channel.

[3] = serum leptin levels during leptin administration; format: in vivo, mouse; conditions: leptin 30 μg/day for 3 days, subcutaneous osmotic pump
Experimental: Leptin increases the HVR in lean mice. Minute ventilation (VE) was measured at normoxic conditions and during 3-5 min exposure to 10% O2 in awake lean male C57BL/6J mice, n=4, at baseline and during leptin administration (30 μg/day for 3 days via a subcutaneous osmotic pump). Serum leptin levels increased from 0.8±0.2 ng/ml to 33.2±1.9 ng/ml, which was similar to previously reported in DIO mice and obese humans, and then returned to the baseline. Mice decreased food intake and lost weight. Leptin increased VE at baseline as a result of an increase in the metabolic rate (FIG. 10). Leptin increased the HVR by greater than 60%.

[4] = tested on: isolated CB-CSN preparations; assay: hypoxia-induced CSN activity in isolated superfused CB-CSN preparation; design: species or system C57B1/6J (WT) mice; conditions: effect of leptin
Text: SKF and 2-APB data were pooled, *p<0.05.
Leptin and carotid body function CBs are major peripheral O2 sensors, which initiate chemosensory inputs in the CSN to the respiratory centers via nucleus solitarius to evoke acute hyperventilation, and the rostral ventrolateral medulla presympathetic neurons to stimulate SNS activity. CB plays critical roles in the development of hypertension during chronic intermittent hypoxia (CIH); and the sympatho-excitation and destabilization of breathing during heart failure. However, the connection between CB and the obesity-associated hypertension and respiratory instability has not been clearly established. […] The effect of leptin on isolated CB-CSN preparations from C57B1/6J (WT) mice was studied.

[5] = leptin infusion for 3 days, intact carotid bodies

In the case of leptin: an adipocyte-produced hormone, the “Trpm7 promoter luciferase activity” value (Trpm7 promoter [1]) is reported as “significantly increased”, the “methylation status of Trpm7 promoter” value (Trpm7 promoter [2]) is reported as “CpG site-specific demethylation” and the “Trpm7 mRNA level” value (TRPM7) is reported as “increased; also recorded: significant increase”. The heart rate (C57BL/6J mice; leptin) was “increases”, the “mean arterial pressure, in words” value (C57BL/6J mice; leptin) was “increases” and the “increase of mean arterial pressure at night” value (C57BL/6J mice; [5]) was 16 mm Hg. For the same substance, the “increase of mean arterial pressure during the day” value (C57BL/6J mice; [5]) was 13 mm Hg, the serum leptin levels [3] was 33.2 ± 1.9 ng/mL and the “hypoxia-induced CSN activity” value [4] was “significantly augmented”. For the same substance, the “hypoxia-induced CSN activity” value ([4]; listed as Leptin) was “augments”.

Source: patent US20200054581A1, “APPLICATION OF TRPM7 INHIBITORS TO TREAT SLEEP APNEA AND HYPERTENSION IN OBESITY” (THE JOHNS HOPKINS UNIVERSITY, priority 2017, published 2020)
